The text below walks through data of patent US11603380B2 (Centre national de la recherche scientifique, priority 2018, dated 2023).

The nature of one series: in vitro. The following applies: human.
For series [1], the system named is herpes simplex virus 1 (HSV-1) (KOS). The series can be described thus: microbe, parasite or virus in culture. It counts as cell-based. Conditions: read-out: EC50 HSV-1 (KOS).
Series [2] relates to human cytomegalovirus (HCMV) (AD-169). Put plainly: microbe, parasite or virus in culture. It counts as cell-based. Conditions: read-out: EC50 HCMV (AD-169).
The test system of series [3] is human cytomegalovirus (HCMV) (Davis). The series can be described thus: microbe, parasite or virus in culture. The class given is cell-based. Conditions: read-out: EC50 HCMV (Davis).
The next series concerns HSV-1 (KOS ACV) TK−. Put plainly: microbe, parasite or virus in culture. It counts as cell-based, herpes simplex virus 1.
The subject of series [4] is varicella-zoster virus (VZV) TK+ (OKA). Put plainly: microbe, parasite or virus in culture. The class given is cell-based. Conditions: read-out: EC50 VZV TK+ (OKA).
In a further series the test system is HSV-2 (G). Put plainly: microbe, parasite or virus in culture. It counts as cell-based, herpes simplex virus 2. The following applies: read-out: EC50 HSV-2 (G).
A further series concerns Vaccinia Virus. The series can be described thus: microbe, parasite or virus in culture. It counts as cell-based. Conditions: read-out: EC50 Vaccinia Virus.
In series [5] the test system is varicella-zoster virus (VZV) TK− (07/1). The series can be described thus: microbe, parasite or virus in culture. The class given is cell-based. The following applies: Human alphaherpesvirus 3, HEL, read-out: EC50 VZV TK− (07/1).
Series [6] deals with HSV-1, HSV-2, HSV-1 (TK−), VV, FHV. The class given is cell-based.
The next series concerns Feline Herpes Virus. Put plainly: organism not typed. The class given is cell-based. The following applies: read-out: EC50 Feline Herpes Virus.
The test system of another series is HEL cells. Conditions: read-out: Cytotoxicity CC50; concentration reducing cell growth by 50%; HCMV/VZV table.
Where [7] appears, read: Human betaherpesvirus 5, AD169, HEL.
Setting [8] is: Human alphaherpesvirus 1, read-out: EC50 HSV-1 (KOS ACV) TK−.
[9] abbreviates: read-out: EC50 HSV-1 (KOS ACV) TK−.

Like-named read-outs stand apart in the source and are kept apart here.

The molecule `CC(C)OC(=O)OCOP(=O)(C/C=C/COc1cc(N)nc(N)n1)OCOC(=O)OC(C)C` [Compound (3), [[(E)-4-(2,6-diaminopyrimidin-4-yl)oxybut-2′-enyl]-(isopropoxycarbonyloxymethoxy)phosphoryl]oxymethyl isopropyl carbonate] came in with a CC50 at 3 days in “in vitro” of 99 µM. Further, the EC50 in series [1] (Human alphaherpesvirus 1, HEL) was determined as 3.75 µM; in [2] (setting [7]) it was 44.7 µM; in [3] (Human betaherpesvirus 5, HEL) it was 36.6 µM; in the series on HSV-1 (KOS ACV) TK− (setting [8]), 5.75 µM; in [4] (Human alphaherpesvirus 3, HEL), 0.86 µM; with HSV-2 (G) (Human alphaherpesvirus 2, HEL), 1.85 µM. Moreover, the EC50 was greater than 100 µM in the series on Vaccinia Virus (Orthopoxvirus vaccinia, HEL); 1.25 µM in series [5]; greater than 100 µM in the series on Feline Herpes Virus. Moreover, the “activity level against HSV-1, HSV-2, HSV-1 (TK−), VV, FHV” value (from here on “activity level”) in series [6] was “micromolar and sub-micromolar activities”. Moreover, the “Cytotoxicity MCC” value in the series on HEL cell cultures (human) was greater than 100 µM.
As for `O=c1[nH]c(=O)n([C@H]2C[C@H](O)[C@@H](CO)O2)cc1/C=C/Br` [Brivudine, reference compound], the CC50 was 339 µM in the series “in vitro” and greater than 100 µM in the series “in vitro” (Cytotoxicity CC50). For the same molecule, the EC50 was 0.08 µM in series [2] (setting [7]); 250 µM in series [3] (Human betaherpesvirus 5, HEL); 0.01 µM in series [4] (Human alphaherpesvirus 3, HEL); 22 µM in the series with Vaccinia Virus (Orthopoxvirus vaccinia, HEL); 117 µM in [5]. Also, the “Cytotoxicity MCC” value with HEL cell cultures (human) is greater than 100 µM.
As to `CCCCCCCCCCCCCCCCOCCCOP(=O)(C/C=C/COc1cc(N)nc(N)n1)OCOC(=O)OC(C)C` (stereo not drawn) [Compound (2), [[(E)-4-(2,6-diaminopyrimidin-4-yl)oxybut-2′-enyl]-(3-hexadecoxypropoxy)phosphoryl]oxymethyl isopropyl carbonate], the EC50 in series [1] is greater than 100 µM; in series [2] it was 7.08 µM; in series [3], 7.26 µM; in the series with HSV-1 (KOS ACV) TK− (setting [9]), greater than 100 µM; in series [4], 0.17 µM; with HSV-2 (G), greater than 100 µM. The EC50 with Vaccinia Virus and in the series on Feline Herpes Virus was greater than 100 µM throughout. Also, the CC50 in the series on HEL cells was determined as 14.5 µM. For the same molecule, the “Cytotoxicity MCC” value with HEL cell cultures was greater than 100 µM.
The molecule `CC(C)(C)C(=O)OCOP(=O)(C/C=C/COc1cc(N)nc(N)n1)OCOC(=O)C(C)(C)C` [Compound (1), [[(E)-4-(2,6-diaminopyrimidin-4-yl)oxybut-2′-enyl]-(2,2-dimethylpropanoyloxymethoxy)phosphoryl]oxymethyl 2,2-dimethylpropanoate] gave a CC50 at 3 days in the series “in vitro” of 5.1 µM. The EC50 in series [1] (Human alphaherpesvirus 1, HEL) was determined as 13.4 µM; in [2] (setting [7]) it was 44.7 µM; in series [3] (Human betaherpesvirus 5, HEL), 44.7 µM; in the series on HSV-1 (KOS ACV) TK− (setting [8]) it was 13.4 µM; in series [4] (Human alphaherpesvirus 3, HEL) it was 2.04 µM; in the series with HSV-2 (G) (Human alphaherpesvirus 2, HEL) it was 13.4 µM. Also, the EC50 was 32.5 µM with Vaccinia Virus (Orthopoxvirus vaccinia, HEL); 2.32 µM in [5]; greater than 100 µM with Feline Herpes Virus. Further, the “activity level” value in [6] was “micromolar and sub-micromolar activities”. Moreover, in the series with HEL cell cultures (human), the “Cytotoxicity MCC” value was greater than 100 µM.
For `CC(C)(C)C(=O)OCOP(=O)(/C=C/COc1cc(N)nc(N)n1)OCOC(=O)C(C)(C)C` [Compound (9), [[(E)-3-(2,6-diaminopyrimidin-4-yl)oxyprop-1-enyl]-(2,2-dimethyl-propanoyloxymethoxy)phosphoryl]oxymethyl 2,2-dimethylpropanoate], the EC50 was greater than 100 µM in [1] (Human alphaherpesvirus 1, HEL); greater than 100 µM in [2] (setting [7]); greater than 100 µM in [3] (Human betaherpesvirus 5, HEL); greater than 100 µM in the series on HSV-1 (KOS ACV) TK− (setting [8]); 76.5 µM in [4] (Human alphaherpesvirus 3, HEL); greater than 100 µM with HSV-2 (G) (Human alphaherpesvirus 2, HEL). The EC50 is greater than 100 µM with Vaccinia Virus (Orthopoxvirus vaccinia, HEL); greater than 100 µM in series [5]; greater than 100 µM in the series with Feline Herpes Virus. The “Cytotoxicity MCC” value in the series with HEL cell cultures (human) is greater than 100 µM.
For the molecule `C/C(=C\CP(=O)(OCOC(=O)C(C)(C)C)OCOC(=O)C(C)(C)C)COc1cc(N)nc(N)n1` [Compound (11), [[(E)-4-(2,6-diaminopyrimidin-4-yl)oxy-3-methyl-but-2-enyl]-(2,2-dimethyl-propanoyloxymethoxy)phosphoryl]oxymethyl 2,2-dimethylpropanoate], the EC50 in series [1] (Human alphaherpesvirus 1, HEL) is greater than 100 µM; in [2] (setting [7]), greater than 100 µM; in series [3] (Human betaherpesvirus 5, HEL) it was greater than 100 µM; with HSV-1 (KOS ACV) TK− (setting [8]), 51.5 µM; in series [4] (Human alphaherpesvirus 3, HEL), 51.5 µM; in the series with HSV-2 (G) (Human alphaherpesvirus 2, HEL), greater than 100 µM. Besides, the EC50 in the series with Vaccinia Virus (Orthopoxvirus vaccinia, HEL) was 49.3 µM; in series [5], 49.3 µM; in the series on Feline Herpes Virus, greater than 100 µM. The “Cytotoxicity MCC” value in the series on HEL cell cultures (human) was greater than 100 µM.
Consider `Nc1nc2c(ncn2COCCO)c(=O)[nH]1` [Acyclovir, reference compound], for which the CC50 in the series “in vitro” was 134 ± 10 µM; in “in vitro” (Cytotoxicity CC50) it was greater than 100 µM. Besides, the EC50 in [2] (setting [7]) was 0.4 µM; in series [3] (Human betaherpesvirus 5, HEL), 250 µM; with Vaccinia Virus (Orthopoxvirus vaccinia, HEL), greater than 100 µM.
The molecule `CC(C)(C)C(=O)OCOP(=O)(CCCCOc1cc(N)nc(N)n1)OCOC(=O)C(C)(C)C` [Compound (12)] yielded a CC50 at 3 days in “in vitro” of 54.9 µM. Also, the EC50 in series [1] (Human alphaherpesvirus 1, HEL) was 39.5 µM; in series [2] (setting [7]), 44.7 µM; in [3] (Human betaherpesvirus 5, HEL), greater than 20 µM; in the series on HSV-1 (KOS ACV) TK− (setting [8]) it was 42 µM; in [4] (Human alphaherpesvirus 3, HEL) it was 11.3 µM; in the series with HSV-2 (G) (Human alphaherpesvirus 2, HEL), 39.5 µM. For the same molecule, the EC50 is greater than 100 µM in the series on Vaccinia Virus (Orthopoxvirus vaccinia, HEL); 11 µM in [5]; greater than 100 µM in the series with Feline Herpes Virus. The “Cytotoxicity MCC” value in the series with HEL cell cultures (human) is greater than 100 µM.
For the molecule `CC(=O)OCC(=CCP(=O)(OCOC(=O)C(C)(C)C)OCOC(=O)C(C)(C)C)COc1cc(N)nc(N)n1` (mixture of isomers) [Compound (4), [[(Z/E)-3-(acetoxymethyl)-4-(2,6-diaminopyrimidin-4-yl)oxy-but-2′-enyl]-(2,2-dimethylpropanoyloxymethoxy)phosphoryl]oxymethyl 2,2-dimethylpropanoate], the CC50 at 3 days in the series “in vitro” is 2.02 µM. For the same molecule, the EC50 in [1] (Human alphaherpesvirus 1, HEL) is 0.6 µM; in [2] (setting [7]) it was 8.56 µM; in [3] (Human betaherpesvirus 5, HEL) it was 4.06 µM; in the series with HSV-1 (KOS ACV) TK− (setting [8]), 0.6 µM; in series [4] (Human alphaherpesvirus 3, HEL) it was 0.14 µM; in the series with HSV-2 (G) (Human alphaherpesvirus 2, HEL), 1.1 µM. In addition, the EC50 in the series with Vaccinia Virus (Orthopoxvirus vaccinia, HEL) was 2.9 µM; in series [5], 0.12 µM; in the series with Feline Herpes Virus, greater than 100 µM. Further, the “activity level” value in [6] was “micromolar and sub-micromolar activities”. In addition, the “Cytotoxicity MCC” value in the series on HEL cell cultures (human) turned out to be 100 µM.
In the case of “[(E/Z)-2-[[2-[bis(tert-butoxycarbonyl)amino]-6-methoxy-pyrimidin-4-yl]oxymethyl]-4-[3-hexadecoxypropoxy(isopropoxycarbonyloxymethoxy)phosphoryl]but-2′-enyl]acetate [Compound (7)]”, the EC50 is greater than 100 µM in series [1]; greater than 20 µM in series [2]; 8.94 µM in series [3]; greater than 100 µM in the series on HSV-1 (KOS ACV) TK− (setting [9]); greater than 20 µM in series [4]; greater than 100 µM in the series with HSV-2 (G). The EC50 in the series on Vaccinia Virus and in the series on Feline Herpes Virus was greater than 100 µM each time. Further, the CC50 in the series with HEL cells was found to be 1.29 µM. The “Cytotoxicity MCC” value in the series on HEL cell cultures amounted to 100 µM.
On to `CC(C)(C)C(=O)OCOP(=O)(CC/C=C/COc1cc(N)nc(N)n1)OCOC(=O)C(C)(C)C` [Compound (10), [[(E)-5-(2,6-diaminopyrimidin-4-yl)oxypent-3-enyl]-(2,2-dimethyl-propanoyloxymethoxy)phosphoryl]oxymethyl 2,2-dimethylpropanoate], for which the EC50 in series [1] (Human alphaherpesvirus 1, HEL) is greater than 100 µM; in series [2] (setting [7]), greater than 100 µM; in series [3] (Human betaherpesvirus 5, HEL), greater than 100 µM; in the series with HSV-1 (KOS ACV) TK− (setting [8]), greater than 100 µM; in series [4] (Human alphaherpesvirus 3, HEL), 34.2 µM; in the series on HSV-2 (G) (Human alphaherpesvirus 2, HEL), greater than 100 µM. Also, the EC50 in the series with Vaccinia Virus (Orthopoxvirus vaccinia, HEL) is greater than 100 µM; in [5], 24.5 µM; in the series with Feline Herpes Virus, greater than 100 µM. Moreover, the “Cytotoxicity MCC” value in the series on HEL cell cultures (human) turned out to be 100 µM.
Take `CC(=O)OC/C(=C\CP(=O)(OCOC(=O)OC(C)C)OCOC(=O)OC(C)C)COc1cc(N)nc(N)n1` [Compound (6), [(Z)-4-[bis(isopropoxycarbonyloxymethoxy)phosphoryl]-2-[(2,6-diaminopyrimidin-4-yl)oxymethyl]but-2-enyl]acetate]: in the series “in vitro”, the CC50 at 3 days stood at 15.4 µM. For the same molecule, the EC50 in series [1] (Human alphaherpesvirus 1, HEL) was 0.6 ± 0.2 µM; in [2] (setting [7]), greater than 20 µM; in [3] (Human betaherpesvirus 5, HEL) it was 49.7 µM; in the series on HSV-1 (KOS ACV) TK− (setting [8]) it was 0.4 µM; in series [4] (Human alphaherpesvirus 3, HEL), 0.089 µM; in the series on HSV-2 (G) (Human alphaherpesvirus 2, HEL), 0.35 ± 0.05 µM. Besides, the EC50 with Vaccinia Virus (Orthopoxvirus vaccinia, HEL) is 4.1 ± 2.4 µM; in series [5], 0.22 µM; with Feline Herpes Virus it was greater than 100 µM. Moreover, the “Cytotoxicity MCC” value with HEL cell cultures (human) is greater than 100 µM.
`Nc1nc(O)c2ncn(COC(CO)CO)c2n1` [Ganciclovir, reference compound] showed a CC50 in “in vitro” (Cytotoxicity CC50) greater than 100 µM. In addition, the EC50 is 0.06 µM in the series with HSV-2 (G) (Human alphaherpesvirus 2, HEL); greater than 100 µM with Vaccinia Virus (Orthopoxvirus vaccinia, HEL); 1.4 µM with Feline Herpes Virus. In addition, the “Cytotoxicity MCC” value in the series with HEL cell cultures (human) is greater than 100 µM.
